Data set [1] addresses Rho-associated protein kinase 2 (Homo sapiens, UniProt O75116). Briefly: Inhibition of ROCK2.
Data set [2] in a line: Volume of distribution in Sprague-Dawley rat at 1 mg/kg, iv. To be noted: in vivo.
The nature of data set [3]: Half life in Sprague-Dawley rat at 1 mg/kg, iv. The conditions noted are these: in vivo.
Data set [4] can be described thus: Clearance in Sprague-Dawley rat at 1 mg/kg, iv. The conditions noted are these: in vivo.
In the next data set the target is CYP3A4 (Homo sapiens, UniProt P08684). Put plainly: Inhibition of human CYP3A4 at 10 uM. Format: ADME.
The next data set concerns the target T1, CYP1A2 (Homo sapiens, UniProt P05177).
T1 sequence (P05177 whole entry): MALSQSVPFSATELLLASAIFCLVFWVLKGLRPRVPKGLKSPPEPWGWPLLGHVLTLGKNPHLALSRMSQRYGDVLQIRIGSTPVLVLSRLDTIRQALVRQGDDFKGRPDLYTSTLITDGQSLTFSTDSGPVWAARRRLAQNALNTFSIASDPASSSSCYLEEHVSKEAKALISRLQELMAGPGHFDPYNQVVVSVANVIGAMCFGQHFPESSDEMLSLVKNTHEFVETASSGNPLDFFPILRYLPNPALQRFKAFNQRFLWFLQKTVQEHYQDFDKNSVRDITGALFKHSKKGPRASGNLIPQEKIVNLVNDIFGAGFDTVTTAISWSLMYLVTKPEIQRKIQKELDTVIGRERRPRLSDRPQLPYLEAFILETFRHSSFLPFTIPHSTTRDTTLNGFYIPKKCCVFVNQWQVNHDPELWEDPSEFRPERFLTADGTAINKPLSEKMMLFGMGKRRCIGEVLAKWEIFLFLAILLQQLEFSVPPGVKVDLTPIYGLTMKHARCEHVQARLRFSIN
Put plainly: Inhibition of human CYP1A2 at 10 uM. Format: ADME.

Another data set addresses CYP2D6 (Homo sapiens, UniProt P10635). Put plainly: Inhibition of human CYP2D6 at 10 uM. Format: ADME.
For the next data set, the target named is CYP2C9 (Homo sapiens, UniProt P11712). Briefly: Inhibition of human CYP2C9 at 10 uM. Format: ADME.
Data set [5] can be described thus: in vivo. To be noted: Sprague-Dawley, rat, plasma, iv, 1 mg/kg.
In data set [6] the target is RAC-alpha serine/threonine-protein kinase (Homo sapiens, UniProt P31749). Briefly: Inhibition of AKT1 after 55 mins.
Data set [7] can be described thus: Inhibition of myosin light chain bisphosphorylation in rat A7r5 cells after 1 hr.
Data set [8] can be described thus: in vivo. The conditions noted are these: Sprague-Dawley, rat, po, 2 mg/kg.

Chain of CYP3A4 (P08684 whole entry): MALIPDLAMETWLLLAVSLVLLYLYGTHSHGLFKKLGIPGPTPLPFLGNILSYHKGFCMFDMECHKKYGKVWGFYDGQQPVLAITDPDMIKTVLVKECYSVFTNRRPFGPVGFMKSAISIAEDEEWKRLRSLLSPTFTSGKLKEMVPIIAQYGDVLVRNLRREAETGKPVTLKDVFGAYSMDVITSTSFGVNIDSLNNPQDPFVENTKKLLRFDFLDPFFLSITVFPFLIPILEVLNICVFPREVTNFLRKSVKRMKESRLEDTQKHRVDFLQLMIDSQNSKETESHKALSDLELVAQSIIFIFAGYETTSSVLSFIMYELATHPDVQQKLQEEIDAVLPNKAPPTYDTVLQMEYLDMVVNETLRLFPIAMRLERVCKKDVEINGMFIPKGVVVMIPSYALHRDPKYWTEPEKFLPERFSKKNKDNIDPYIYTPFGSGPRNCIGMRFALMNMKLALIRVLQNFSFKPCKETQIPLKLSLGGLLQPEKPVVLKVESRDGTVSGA
Chain of CYP2D6 (P10635 whole entry): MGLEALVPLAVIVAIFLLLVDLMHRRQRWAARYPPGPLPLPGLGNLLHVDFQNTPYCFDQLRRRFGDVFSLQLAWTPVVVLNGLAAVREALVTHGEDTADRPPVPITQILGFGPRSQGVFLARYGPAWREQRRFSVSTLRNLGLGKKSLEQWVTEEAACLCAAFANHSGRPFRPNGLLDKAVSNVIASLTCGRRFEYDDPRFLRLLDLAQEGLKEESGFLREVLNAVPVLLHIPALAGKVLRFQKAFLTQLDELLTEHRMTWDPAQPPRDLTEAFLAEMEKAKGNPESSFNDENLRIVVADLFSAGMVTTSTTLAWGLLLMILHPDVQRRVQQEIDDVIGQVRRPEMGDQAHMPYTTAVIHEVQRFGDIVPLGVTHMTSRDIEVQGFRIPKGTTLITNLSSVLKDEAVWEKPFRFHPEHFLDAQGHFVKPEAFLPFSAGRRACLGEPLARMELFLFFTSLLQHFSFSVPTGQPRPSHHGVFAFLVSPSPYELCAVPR
Chain of Rho-associated protein kinase 2 (O75116 whole entry): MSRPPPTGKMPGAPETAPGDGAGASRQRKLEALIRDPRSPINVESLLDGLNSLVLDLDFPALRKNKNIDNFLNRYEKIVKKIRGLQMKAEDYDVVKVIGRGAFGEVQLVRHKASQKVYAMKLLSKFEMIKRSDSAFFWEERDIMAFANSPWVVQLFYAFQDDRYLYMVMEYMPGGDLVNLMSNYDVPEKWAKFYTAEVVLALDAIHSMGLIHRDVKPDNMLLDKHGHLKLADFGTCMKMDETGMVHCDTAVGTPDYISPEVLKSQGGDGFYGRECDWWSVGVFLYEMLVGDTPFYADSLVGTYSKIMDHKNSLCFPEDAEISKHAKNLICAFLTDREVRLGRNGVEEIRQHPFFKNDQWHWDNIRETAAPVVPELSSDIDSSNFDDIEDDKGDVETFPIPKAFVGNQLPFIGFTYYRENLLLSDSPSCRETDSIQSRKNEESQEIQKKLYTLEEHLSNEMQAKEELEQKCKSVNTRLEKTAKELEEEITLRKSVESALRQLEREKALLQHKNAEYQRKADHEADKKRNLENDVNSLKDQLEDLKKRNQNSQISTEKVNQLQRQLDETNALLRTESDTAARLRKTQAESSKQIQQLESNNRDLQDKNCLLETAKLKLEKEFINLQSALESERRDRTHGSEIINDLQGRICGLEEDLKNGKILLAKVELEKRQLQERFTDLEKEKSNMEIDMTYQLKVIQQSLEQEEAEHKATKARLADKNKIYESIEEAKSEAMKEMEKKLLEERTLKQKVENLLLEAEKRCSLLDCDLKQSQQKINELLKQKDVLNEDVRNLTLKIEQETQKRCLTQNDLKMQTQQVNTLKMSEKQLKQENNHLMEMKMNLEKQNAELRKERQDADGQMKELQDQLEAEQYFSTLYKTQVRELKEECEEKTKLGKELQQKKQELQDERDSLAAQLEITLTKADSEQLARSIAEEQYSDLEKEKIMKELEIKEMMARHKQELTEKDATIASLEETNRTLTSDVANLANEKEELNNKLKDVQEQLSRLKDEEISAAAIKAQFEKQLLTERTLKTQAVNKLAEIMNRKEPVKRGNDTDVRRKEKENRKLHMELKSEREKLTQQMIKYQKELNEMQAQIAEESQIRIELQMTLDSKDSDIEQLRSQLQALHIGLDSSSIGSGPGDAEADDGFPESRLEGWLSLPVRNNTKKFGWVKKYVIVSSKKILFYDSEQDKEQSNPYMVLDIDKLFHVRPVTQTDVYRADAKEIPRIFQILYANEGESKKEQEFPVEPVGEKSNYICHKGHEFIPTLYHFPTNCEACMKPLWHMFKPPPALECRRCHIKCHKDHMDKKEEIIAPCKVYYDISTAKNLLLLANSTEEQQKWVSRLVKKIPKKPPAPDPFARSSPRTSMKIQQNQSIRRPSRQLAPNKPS
Chain of CYP2C9 (P11712 whole entry): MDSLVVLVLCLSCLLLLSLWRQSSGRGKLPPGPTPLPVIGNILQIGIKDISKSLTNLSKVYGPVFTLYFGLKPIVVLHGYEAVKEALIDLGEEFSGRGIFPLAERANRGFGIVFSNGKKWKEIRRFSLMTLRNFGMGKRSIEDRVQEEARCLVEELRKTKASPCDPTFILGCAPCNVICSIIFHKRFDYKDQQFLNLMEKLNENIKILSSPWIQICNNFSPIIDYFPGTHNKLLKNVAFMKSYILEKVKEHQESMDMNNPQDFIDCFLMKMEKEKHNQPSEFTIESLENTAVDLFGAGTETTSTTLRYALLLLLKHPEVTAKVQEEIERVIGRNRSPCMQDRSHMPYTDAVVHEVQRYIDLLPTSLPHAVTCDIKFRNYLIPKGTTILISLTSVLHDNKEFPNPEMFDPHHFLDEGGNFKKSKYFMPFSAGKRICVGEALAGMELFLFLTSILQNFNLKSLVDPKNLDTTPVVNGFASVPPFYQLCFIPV
Chain of RAC-alpha serine/threonine-protein kinase (P31749 whole entry): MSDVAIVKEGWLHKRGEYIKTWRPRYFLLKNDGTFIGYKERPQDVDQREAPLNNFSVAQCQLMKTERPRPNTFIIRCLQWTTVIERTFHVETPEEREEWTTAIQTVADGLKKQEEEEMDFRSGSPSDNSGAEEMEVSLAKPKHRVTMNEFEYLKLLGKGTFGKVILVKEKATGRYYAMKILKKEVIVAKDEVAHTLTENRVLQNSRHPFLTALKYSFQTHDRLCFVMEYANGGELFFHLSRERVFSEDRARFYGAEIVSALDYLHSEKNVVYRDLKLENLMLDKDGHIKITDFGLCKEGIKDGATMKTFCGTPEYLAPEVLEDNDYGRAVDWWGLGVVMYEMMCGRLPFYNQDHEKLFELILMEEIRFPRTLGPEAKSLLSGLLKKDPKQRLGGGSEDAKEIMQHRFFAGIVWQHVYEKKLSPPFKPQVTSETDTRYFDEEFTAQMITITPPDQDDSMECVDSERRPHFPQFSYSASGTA

Regarding `CC(=O)Nc1ccc(-c2cn[nH]c2)cc1OCCN(C)C`, half-maximal inhibition in data set [1] (IC50) was put at 760 nM.

`O=C(Nc1ccc(-c2ccncc2)cc1)C1COc2ccccc2O1` (stereo unspecified) showed a volume of distribution (Vd) in [2] of 5.3 L/kg. The compound also showed a half-life in [3] of 0.5 h. In data set [4], this compound showed a clearance of 161 mL/min/kg. For the same compound, the inhibition at 10 µM at CYP3A4 worked out at 51%; on CYP1A2 it was 23%; against CYP2D6, 33%; against CYP2C9, 64%. In the data set “in vivo [5]”, this compound returned an AUC of 0.3 µM·h.

As to `O=C(Nc1nc(-c2ccncc2)cs1)C1COc2ccccc2O1` (stereo unspecified), the Vd in data set [2] was determined as 3.7 L/kg. Further, in data set [3], the half-life was 0.4 h. This compound also showed a clearance in data set [4] of 181 mL/min/kg. In addition, the inhibition at 10 µM was found to be 80% on CYP3A4, 90% at CYP1A2, 94% against CYP2D6 and 96% against CYP2C9. The IC50 in data set [6] was more than 20000 nM; in [7], 137 nM; in data set [1], 7.2 nM. The same compound yielded an AUC in the data set “in vivo [5]” of 0.3 µM·h.

Regarding `COc1cc(-c2cn[nH]c2)ccc1NC(=O)C1COc2ccccc2O1` (stereo unspecified), the Vd in data set [2] stood at 1 L/kg. In data set [3], this compound gave a half-life of 2.6 h. In [4], this compound displayed a clearance of 11 mL/min/kg. The inhibition at 10 µM against CYP3A4 came out at 36%; on CYP1A2, 92%; on CYP2D6, 79%; on CYP2C9, 93%. Besides, the IC50 is 8820 nM in data set [6] and 3.3 nM in [1]. This compound registered an AUC in the data set “in vivo [5]” of 4.3 µM·h. Besides, in “in vivo [8]”, the Cmax worked out at 120 nM.

`CN(C)CCOc1cc(-c2cn[nH]c2)ccc1N` registered an IC50 in [1] of 920 nM.

In data set [2], `O=C(Nc1ccc(-c2c[nH]cn2)cc1)C1COc2ccccc2O1` (stereo unspecified) yielded a Vd of 1.9 L/kg. Besides, in data set [3], the half-life was 2.2 h. The compound also had a clearance in data set [4] of 18 mL/min/kg. Further, the inhibition at 10 µM at CYP3A4 was found to be 1%; against CYP1A2, 20%; at CYP2D6 it was 40%; on CYP2C9, 87%. The same compound gave an AUC in “in vivo [5]” of 2.8 µM·h. The maximum concentration (Cmax) in “in vivo [8]” amounted to 20 nM.

Source of the values: ChEMBL document CHEMBL1142492 (J Med Chem, 2008).
